Assay results from patent publication US6956055B2, “Substituted γ-lactone compounds as NMDA-antagonists” (Grunenthal GmbH, priority 2001, dated 2005).

Target: T1, glycine-binding site of the NMDA receptor channel (Rattus norvegicus, UniProt P35439)
T1 construct: from tissue; host or cells: rat brain cortex and hippocampus membrane homogenate (male Wistar rats, Charles River)
Test: Receptor binding test, displacement of (3H)-MDL 105.519 on rat brain membrane homogenates
Settings: rat cortex and hippocampus membrane homogenate; for inhibition at 10 µM: (3H)-MDL 105.519; for Ki: 1 nmol/l (3H)-MDL 105.519, IC50 converted using Cheng-Prusoff equation
Experimental: The investigations for determining the affinity of the γ-lactone compounds of the general formula I according to the invention for the glycine-binding site of the NMDA receptor channel were performed on brain membrane homogenates (homogenate of cortex and hippocampus area from the brain of male rats, Wistar strain, Charles River, WIGA GmbH, Sulzbach, Germany), as described in B. M. Baron et al., Journal of Pharmacology and Experimental Therapeutics, vol. 279, pages 62-68, 1996. The corresponding literature description is hereby introduced as a reference and is deemed to be part of the disclosure.
To this end, the cortex and hippocampus were dissected out of freshly harvested rat brains and homogenised with ice cooling in 5 mmol/l of TRIS-acetate buffer, 0.32 mol/l of sucrose, pH 7.4 (10 ml/g fresh weight) using a Potter homogeniser (Braun, Melsungen, Germany, 10 piston strokes at 500 revolutions per minute (rpm)) and then centrifuged for 10 minutes at 1,000 g and 4° C. The first supernatant was collected and the sediment again homogenised with ice cooling with 5 mmol/l of TRIS-acetate buffer, 0,32 mol/l of sucrose, pH 7.4 (5 ml/g of original fresh weight of rat cerebral cortex and hippocampus) with the Potter homogeniser (10 piston strokes at 500 rpm) and centrifuged for 10 minutes at 1,000 g and 4° C. The resultant supernatant was combined with the supernatant from the first centrifugation and centrifuged at 17,000 g for 20 minutes at 4° C. The supernatant after this centrifugation was discarded and the membrane sediment was resuspended with 5 mmol/l of TRIS-acetate buffer, pH 8.0 (20 ml/g of original fresh weight) and homogenised with 10 piston strokes at 500 rpm.
The membrane homogenate was then incubated for 1 hour at 4° C. and centrifuged for 30 minutes at 50,000 g and 4° C. The supernatant was discarded and the centrifuge tubes containing the membrane sediment were sealed with Parafilm and frozen for 24 hours at −20° C. On the following day, the membrane sediment was thawed and resuspended with ice-cold 5 mmol/l TRIS-acetate buffer, 0,1% saponin (wt./vol.), pH 7.0 (10 ml/g of original fresh weight) and homogenised with 10 piston strokes at 500 rpm and then centrifuged for 20 minutes at 50,000 g and 4° C. The resultant supernatant was discarded and the sediment resuspended in a small volume with 5 mmol/l of TRIS-acetate buffer, pH 7.0 (approx. 2 ml/g of original fresh weight) and again homogenised with 10 piston strokes at 500 rpm. After determination of the protein content, the membrane homogenate was adjusted with 5 mmol/l TRIS-acetate buffer, pH 7.0, to a protein concentration of 10 mg of protein/ml and frozen in aliquots until used for testing.
The receptor binding test was performed by thawing aliquots, diluting them 1:10 with 5 mmol/l TRIS-acetate buffer, pH 7.0, homogenising them with ice-cooling with 10 piston strokes at 500 rpm with the Potter homogeniser and centrifuging them for 60 minutes at 55,000 g at 4° C. The supernatant was decanted and the membrane sediment adjusted with ice-cold 50 mmol/l TRIS-acetate buffer, pH 7.0, to a protein concentration of 1 mg/ml and again homogenised with 10 piston strokes at 500 rpm and kept in suspension in an ice bath with stirring on a magnetic stirrer. This membrane homogenate was used in the receptor binding test in a quantity of 100 μl per 1 ml batch (0.1 mg of protein/ml in the final batch).
In the binding test, 50 mmol/l TRIS-acetate buffer pH 7.0 was used as the buffer and 1 nmol/l of (^3H)-MDL 105.519 was used as the radioactive ligand, as described in the above-stated literature reference by B. M. Baron et al. The level of non-specific binding was determined in the presence of 1 mmol/l of glycine.
In further batches, the compounds of the general formula I according to the invention were added in concentration series and the displacement of the radioactive ligand from its specific binding at the glycine-binding site of the NMDA receptor channel was determined. […]

inhibition at 10 µM	Ki	Structure (SMILES)
80%	800 nM	CC1(c2ccccc2)CC(Nc2cc(Cl)cc(Cl)c2)C(=O)O1 (stereo not shown) [Example 12, 3-(3,5-Dichloro-phenylamino)-5-methyl-5-phenyl-dihydro-furan-2-one]
70%	800 nM	CC1(c2ccc(F)cc2)CC(Nc2cc(Cl)cc(Cl)c2)C(=O)O1 (stereo not shown) [Example 13, 3-(3,5-Dichloro-phenylamino)-5-(4-fluoro-phenyl)-5-methyl-dihydro-furan-2-one]
71%	1300 nM	CC1(c2ccc(Cl)cc2)CC(Nc2cc(Cl)cc(Cl)c2)C(=O)O1 (stereo not shown) [Example 25, 5-(4-Chloro-phenyl)-3-(3,5-dichloro-phenylamino)-5-methyl-dihydro-furan-2-one]
62%	–	CCCCC1(c2ccccc2)CC(Nc2cc(Cl)cc(Cl)c2)C(=O)O1 (stereo not shown) [Example 108, 5-n-Butyl-3-(3,5-dichlorophenylamino)-5-phenyl-dihydrofuran-2-one]
